Results as given in ChEMBL document CHEMBL2086262, “Ligand-based designing, in silico screening, and biological evaluation of new potent fructose-1,6-bisphosphatase (FBPase) inhibitors” (Eur J Med Chem, 2012).

Experiment: Inhibition of human recombinant FBPase using fructose-1,6-biphosphate as substrate incubated for 3 mins prior to substrate addition by spectrophotometric analysis

| SMILES | IC50 |
| --- | --- |
| CCOc1cc2ncnc(Nc3cccc(-c4cscn4)c3)c2cc1OCC | 390 nM |
| CCOc1cc2ncnc(Nc3ccc(Cl)c(Cl)c3)c2cc1OCC | > 10000 nM |
| CCOc1cc2ncnc(Nc3cccc(-c4nc(C(N)=O)cs4)c3)c2cc1OCC | 830 nM |
| CCOc1cc2nc(CCN)nc(Nc3cccc(-c4csc(C)n4)c3)c2cc1OCC | 220 nM |
| CCOc1cc2ncnc(Nc3cccc(-c4nc[nH]n4)c3)c2cc1OCC | 640 nM |
| CCOc1cc2ncnc(Nc3cc(-c4csc(C)n4)c(F)cc3F)c2cc1OCC | > 10000 nM |
| O=C(O)CCc1c(C(=O)NO)[nH]c2cc(Cl)cc(Cl)c12 | > 10000 nM |
| CCOc1cc2ncnc(Nc3cccc(-c4ccccc4)c3)c2cc1OCC | > 10000 nM |
| CCOc1cc2nc(CC(=O)O)nc(Nc3cccc(-c4csc(C)n4)c3)c2cc1OCC | 960 nM |
| CCOc1cc2ncnc(Nc3cccc(-c4csc(NC)n4)c3)c2cc1OCC | 800 nM |
| CCOc1cc2ncnc(Nc3cccc(-c4cc[nH]n4)c3)c2cc1OCC | 730 nM |
| CCOc1cc2ncnc(Nc3cccc(-c4cnc(C)o4)c3)c2cc1OCC | 4000 nM |
| Nc1ncnc2c1ncn2[C@@H]1O[C@H](COP(=O)(O)O)[C@@H](O)[C@H]1O [ADENOSINE PHOSPHATE] | 12300 nM |
| CCOc1cc2nc(-n3ccnc3)nc(Nc3cccc(-c4csc(C)n4)c3)c2cc1OCC | 770 nM |
| CCOc1cc2ncnc(Nc3cccc(-c4nc(C)cs4)c3)c2cc1OCC | 650 nM |
| CCOc1cc2nc(CC(C)C)nc(Nc3cccc(Br)c3)c2cc1OCC | > 10000 nM |
| CCOc1cc2ncnc(Nc3cccc(I)c3)c2cc1OCC | 2100 nM |
| CCOc1cc2nc(COC)nc(Nc3cccc(-c4csc(C)n4)c3)c2cc1OCC | 1400 nM |
| CCOc1cc2ncnc(Nc3ccc(Cl)c(-c4csc(C)n4)c3)c2cc1OCC | 5300 nM |
| COCCOc1cc2c(Nc3cccc(-c4csc(C)n4)c3)ncnc2cc1OC | > 10000 nM |
| CCOc1cc2ncnc(Nc3cccc(-c4csc(N)n4)c3)c2cc1OCC | 3500 nM |
| COCCOc1cc2ncnc(Nc3cccc(Br)c3)c2cc1OCCOC | > 10000 nM |
| COc1cc(-c2ccc(OC)nc2)c2oc(NS(=O)(=O)c3cc(Cl)ccc3Cl)nc2c1 | 3500 nM |

| SMILES | IC50 |
| --- | --- |
| CCOc1cc2nc(CCCl)nc(Nc3cccc(-c4csc(C)n4)c3)c2cc1OCC | 1000 nM |
| CCOc1cc2nc(CC(C)C)nc(Nc3cccc(-c4csc(C)n4)c3)c2cc1OCC | 1700 nM |
| COc1cc2ncnc(Nc3cccc(Cl)c3)c2cc1OC [TYRPHOSTIN AG-1478] | 1300 nM |
| CCOc1cc2ncnc(Nc3cccc(Br)c3)c2cc1OCC | 1700 nM |
| CCOc1cc2ncnc(Nc3cccc(-c4cccnc4)c3)c2cc1OCC | 1400 nM |
| CCOc1cc2ncnc(Nc3cccc(-c4ccco4)c3)c2cc1OCC | 1400 nM |
| CCOc1cc2ncnc(Nc3cccc(-c4coc(C)n4)c3)c2cc1OCC | 500 nM |
| CCOc1cc2ncnc(Nc3cc(-c4csc(C)n4)ccc3Br)c2cc1OCC | > 10000 nM |
| CCOc1cc2ncnc(Nc3cccc(-c4csc(C)n4)c3)c2cc1OCC | ≥ 640 nM |
| O=C(O)c1ccc2c(Nc3cccc(Br)c3)ncnc2c1 | > 10000 nM |
| COc1cc2ncnc(Nc3cccc(-c4csc(C)n4)c3)c2cc1OC(C)C | > 10000 nM |
| CCOc1cc2ncnc(Nc3cccc(-c4cncnc4)c3)c2cc1OCC | 1200 nM |
| CCOc1cc2ncnc(Nc3ccccc3)c2cc1OCC | > 10000 nM |
| CCOc1cc2ncnc(Nc3cc(-c4csc(C)n4)ccc3CC)c2cc1OCC | 2100 nM |
| CCCCOc1ccc2ncnc(Nc3cccc(Br)c3)c2c1 | > 10000 nM |
| O=C(O)c1[nH]c2cc(Cl)cc(Cl)c2c1CCCO | 2700 nM |
| C#Cc1cccc(Nc2ncnc3cc(OCC)c(OCC)cc23)c1 | 2400 nM |
| CCOc1cc2ncnc(Nc3cccc(Br)c3)c2cc1[N+](=O)[O-] | 3600 nM |
| COc1cc2ncnc(Nc3cccc(-c4csc(C)n4)c3)c2cc1OC | 4400 nM |
| CCOc1cc2ncnc(Nc3ccc(F)c(-c4csc(C)n4)c3F)c2cc1OCC | > 10000 nM |
| O=C(O)Cc1c(C(=O)O)[nH]c2cc(Cl)cc(Cl)c12 | > 10000 nM |
| CCOc1cc2ncnc(Nc3cc(-c4csc(C)n4)cc(C(F)(F)F)c3)c2cc1OCC | > 10000 nM |
| COc1cc2c(Nc3cccc(-c4csc(C)n4)c3)ncnc2cc1OC1CCCC1 | > 10000 nM |

| SMILES | IC50 |
| --- | --- |
| CCCOc1cc2ncnc(Nc3cccc(-c4csc(C)n4)c3)c2cc1OC | ≥ 5600 nM |
| CCCc1nc(-c2cccc(Nc3ncnc4cc(OCC)c(OCC)cc34)c2)cs1 | > 10000 nM |
| NC(=O)c1[nH]c2cc(Cl)cc(Cl)c2c1CCC(=O)O | > 10000 nM |
| CCOc1cc2ncnc(Nc3cccc(C(=O)CBr)c3)c2cc1OCC | > 10000 nM |
| CCOc1cc2nc(CCl)nc(Nc3cccc(-c4csc(C)n4)c3)c2cc1OCC | 870 nM |
| CCOc1cc2nc(CN(C)C)nc(Nc3cccc(-c4csc(C)n4)c3)c2cc1OCC | 2000 nM |
| Nc1cc2c(Nc3cccc(Br)c3)ncnc2cc1Cl | > 10000 nM |
| CCOc1cc2nc(CN)nc(Nc3cccc(-c4csc(C)n4)c3)c2cc1OCC | 1500 nM |
| CCOc1cc2nc(CCl)nc(Nc3cccc(Br)c3)c2cc1OCC | > 10000 nM |
| COc1cc2ncnc(Nc3cccc(Br)c3)c2cc1[N+](=O)[O-] | > 10000 nM |
| COC(=O)CCc1c(C(=O)O)[nH]c2cc(Cl)cc(Cl)c12 | 7000 nM |
| COCCOc1cc2c(Nc3cccc(Br)c3)ncnc2cc1OC | 5500 nM |
| CCOc1cc2nc(Cc3ccccc3)nc(Nc3cccc(Br)c3)c2cc1OCC | > 10000 nM |
| C#Cc1cccc(Nc2ncnc3cc(OC)c(OC)cc23)c1 | 900 nM |
| CCOc1cc2ncnc(Nc3cc(-c4csc(C)n4)ccc3Cl)c2cc1OCC | 1700 nM |
| CCOc1cc2ncnc(Nc3cc(-c4csc(C)n4)ccc3C)c2cc1OCC | 1800 nM |
| CCOc1cc2ncnc(Nc3cccc(-c4cocn4)c3)c2cc1OCC | 3600 nM |
| CCOC(=O)c1[nH]c2cc(Cl)cc(Cl)c2c1CCC(=O)O | > 10000 nM |
| COCCOc1ccc2ncnc(Nc3cccc(Br)c3)c2c1 | 2900 nM |
| COc1cc2nc(C)nc(Nc3cccc(Br)c3)c2cc1OC | 4500 nM |
| O=[N+]([O-])c1cc2c(Nc3cccc(Br)c3)ncnc2cc1Cl | > 10000 nM |
| CCOc1cc2c(Nc3cccc(-c4csc(C)n4)c3)ncnc2cc1OC | 1200 nM |
| CCOc1ccc(-c2csc(C)n2)cc1Nc1ncnc2cc(OCC)c(OCC)cc12 | 1800 nM |

| SMILES | IC50 |
| --- | --- |
| CCOc1cc2ncnc(Nc3cccc(-c4ccccc4C)c3)c2cc1OCC | > 10000 nM |
| NC(=O)CCc1c(C(=O)O)[nH]c2cc(Cl)cc(Cl)c12 | 2200 nM |
| CCOc1cc2ncnc(Nc3cccc(-c4csc(N(C)C)n4)c3)c2cc1OCC | 8000 nM |
| CCOc1cc2ncnc(Nc3cccc(-c4csc(OC)n4)c3)c2cc1OCC | 780 nM |
| CCOc1cc2nc(CS(C)(=O)=O)nc(Nc3cccc(-c4csc(C)n4)c3)c2cc1OCC | 2100 nM |
| CCOc1cc2ncnc(Nc3ccc(F)c(Cl)c3)c2cc1OCC | 530 nM |
| CCOc1cc2nc(C(F)(F)F)nc(Nc3cccc(-c4csc(C)n4)c3)c2cc1OCC | > 10000 nM |
| COCCOc1cc2ncnc(Nc3cccc(-c4csc(C)n4)c3)c2cc1OC | > 10000 nM |
| O=C(CCc1c(C(=O)O)[nH]c2cc(Cl)cc(Cl)c12)NO | 1500 nM |
| CCOc1cc2ncnc(Nc3cccc(-c4cncs4)c3)c2cc1OCC | 980 nM |
| CCOc1cc2ncnc(Nc3cccc(-c4csc(C(=O)O)n4)c3)c2cc1OCC | > 10000 nM |
| CCOc1cc2ncnc(Nc3cccc(-c4nccs4)c3)c2cc1OCC | 380 nM |
| CCOc1nc(-c2cccc(Nc3ncnc4cc(OCC)c(OCC)cc34)c2)cs1 | 6100 nM |
| CCCOc1cc2ncnc(Nc3cccc(-c4csc(C)n4)c3)c2cc1OCC | 1000 nM |
| CCOc1cc2c(Nc3cccc(-c4csc(C)n4)c3)ncnc2cc1OC(C)C | 420 nM |
| Cc1nc(-c2cccc(Nc3ncnc4cc5c(cc34)OCCO5)c2)cs1 | > 10000 nM |
| CCOc1cc2nc(C)nc(Nc3cccc(-c4csc(C)n4)c3)c2cc1OCC | 1000 nM |
| CN(C)C(=O)CCc1c(C(=O)O)[nH]c2cc(Cl)cc(Cl)c12 | 1700 nM |
| Cc1nc(-c2cccc(Nc3ncnc4cc5ccccc5cc34)c2)cs1 | > 10000 nM |
| CCOc1cc2ncnc(Nc3cccc(-c4csc(Cc5ccccc5)n4)c3)c2cc1OCC | > 10000 nM |
| CCNCc1nc(Nc2cccc(-c3csc(C)n3)c2)c2cc(OCC)c(OCC)cc2n1 | 6000 nM |
| CCOc1cc2nc(-c3ccccc3)nc(Nc3cccc(Br)c3)c2cc1OCC | > 10000 nM |
| CCOc1cc2ncnc(Nc3cccc(-c4ccccn4)c3)c2cc1OCC | 390 nM |

| SMILES | IC50 |
| --- | --- |
| Cc1nc(-c2cccc(Nc3ncnc4ccccc34)c2)cs1 | > 10000 nM |
| CCOc1cc2ncnc(Nc3cc(-c4csc(C)n4)ccc3OC)c2cc1OCC | 990 nM |
| O=C(O)CCCCc1c(C(=O)O)[nH]c2cc(Cl)cc(Cl)c12 | 1200 nM |
| CCOc1cc2nc(CCCCl)nc(Nc3cccc(-c4csc(C)n4)c3)c2cc1OCC | 4100 nM |
| CCOc1cc2ncnc(Nc3cccc(-c4ccc(C)cc4)c3)c2cc1OCC | > 10000 nM |
| CCC(C)Oc1cc2ncnc(Nc3cccc(-c4csc(C)n4)c3)c2cc1OC (configuration not stated) | > 10000 nM |
| CCOc1cc2ncnc(Nc3cc(-c4csc(C)n4)ccc3F)c2cc1OCC | 480 nM |
| COc1cc2c(Nc3cccc(-c4csc(C)n4)c3)ncnc2cc1OC(C)C | 2300 nM |
| CCOc1cc2nc(CN3CCCC3)nc(Nc3cccc(-c4csc(C)n4)c3)c2cc1OCC | 6100 nM |
| CCOc1cc2ncnc(Nc3cccc(-c4csc(C5CC5)n4)c3)c2cc1OCC | 830 nM |
| COc1cc2c(Nc3cccc(-c4csc(C)n4)c3)ncnc2cc1OC(C)(C)C | 1300 nM |
| CCOc1cc2nc(CS(C)(=O)=O)nc(Nc3cccc(Br)c3)c2cc1OCC | > 10000 nM |
| CCOc1cc2ncnc(Nc3cccc(C(C)=O)c3)c2cc1OCC | > 10000 nM |
| CCCOc1cc2c(Nc3cccc(-c4csc(C)n4)c3)ncnc2cc1OC | > 10000 nM |
| CCOc1cc2ncnc(Nc3cccc(C#N)c3)c2cc1OCC | > 10000 nM |
| CCN(CC)c1nc(Nc2cccc(Br)c2)c2cc(OC)c(OC)cc2n1 | > 10000 nM |
| CCOc1cc2ncnc(Nc3cccc(-c4csc(-c5ccccc5)n4)c3)c2cc1OCC | > 10000 nM |
| CCCc1nc(Nc2cccc(-c3csc(C)n3)c2)c2cc(OCC)c(OCC)cc2n1 | 1400 nM |
| CCOc1cc2ncnc(Nc3ccc(F)c(-c4csc(C)n4)c3)c2cc1OCC | 610 nM |
| CCOc1cc2ncnc(Nc3cccc(-c4csc(C)n4)c3)c2cc1OC | 3400 nM |
